pIC50: −log10 of the molar value. Structures can show the parent of a compound that is named as a salt. Where two headings read alike, the source gives them in different places.
What was measured:
[1] = tested on: LP-1 cell line (FGF-1/Heparin induced pERK); test: Cell-based pERK ELISA, LP-1 cells; conditions: Homo sapiens, LP-1, read-out: LP-1 pERK ELISA (μM)
[2] = tested on: parental wild-type Ba/F3 cells; test: Ba/F3 (WT) cell proliferation assay (Alamar Blue); type: cell-based; conditions: Mus musculus; for inhibition at 10 µM / inhibition at 3 µM: BaF3, read-out: BaF3 WT prolif, % inhibition; for pIC50: BaF3, 72 hours, Alamar Blue, read-out: BaF3 WT prolif; for IC50: BaF3, 72 h, read-out: BaF3 WT prolif (μM)

Compound	IC50 [1] [µM]	inhibition at 10 µM [2] [%]	pIC50 [2]	IC50 [2] [µM]	inhibition at 3 µM [2] [%]
NC1CCN(c2ccc(-c3ccn4c(-c5cccc(NC(=O)NCC(F)(F)F)c5)cnc4c3)nn2)CC1 [Example 75, 1-(3-{7-[6-(4-Amino-piperidin-1-yl)-pyridazin-3-yl]-imidazo[1,2-a]pyridin-3-yl}-phenyl)-3-(2,2,2-trifluoro-ethyl)-urea tris-trifluoroacetate]	0.63	32	–	–	–
COc1ccnc(-c2ccn3c(-c4cccc(NC(=O)NCC(F)(F)F)c4)cnc3c2)n1 [Compound 336]	0.074	–	6.34	–	–
O=C(NCC(F)(F)F)Nc1cccc(-c2cnc3cc(-c4ccc(F)cn4)ccn23)c1 [Example 96, 1-{3-[7-(5-Fluoro-pyridin-2-yl)-imidazo[1,2-a]pyridin-3-yl]-phenyl}-3-(2,2,2-trifluoro-ethyl)-urea bis-hydrochloride]	0.0063	–	–	1.7	–
O=C(NCC(F)(F)F)Nc1cccc(-c2cnc3cc(-c4cccnc4)ccn23)c1 [Example 78, 1-[3-(7-Pyridin-3-yl-imidazo[1,2-a]pyridin-3-yl)-phenyl]-3-(2,2,2-trifluoro-ethyl)-urea]	0.017	–	6.82	–	–
O=C(NCC(F)(F)F)Nc1cccc(-c2cnc3cc(-c4nnc(C5CCCO5)s4)ccn23)c1 (stereo not drawn) [Example 1, 1-(3-{7-[5-(Tetrahydrofuran-2-yl)-[1,3,4]thiadiazol-2-yl]imidazo[1,2-a]pyridin-3-yl}-phenyl)-3-(2,2,2-trifluoroethyl)urea]	0.0074	–	6.04	–	–
O=C(NCC(F)(F)F)Nc1cccc(-c2cnc3cc(-c4ccncn4)ccn23)c1 [Example 34, 1-[3-(7-Pyrimidin-4-ylimidazo[1,2-a]pyridin-3-yl)phenyl]-3-(2,2,2-trifluoroethyl)urea hydrochloride]	0.013	0	–	–	–
O=C(NCC(F)(F)F)Nc1cccc(-c2cnc3cc(-c4nc5c(s4)CNCC5)ccn23)c1 [Example 53, 1-{3-[7-(4,5,6,7-Tetrahydro-thiazolo[5,4-c]pyridin-2-yl)-imidazo[1,2-a]pyridin-3-yl]-phenyl}-3-(2,2,2-trifluoroethyl)-urea formate]	0.023	–	–	4.1	–
O=C(NCC(F)(F)F)Nc1cccc(-c2cnc3cc(-c4cnccn4)ccn23)c1 [Example 30, 1-[3-(7-Pyrazin-2-ylimidazo[1,2-a]pyridin-3-yl)phenyl]-3-(2,2,2-trifluoroethyl)urea]	0.045	–	6.89	–	–
CNc1ccc(-c2ccn3c(-c4cccc(NC(=O)NCC(F)(F)F)c4)cnc3c2)nn1 [Example 132, 1-{3-[7-(6-Methylamino-pyridazin-3-yl)-imidazo[1,2-a]pyridin-3-yl]-phenyl}-3-(2,2,2-trifluoro-ethyl)-urea]	0.172	22.9	–	–	–
O=C1CN(c2ncc(-c3ccn4c(-c5cccc(NC(=O)NCC(F)(F)F)c5)cnc4c3)cn2)CCN1 [Example 94, 1-(3-{7-[2-(3-Oxo-piperazin-1-yl)-pyrimidin-5-yl]-imidazo[1,2-a]pyridin-3-yl}-phenyl)-3-(2,2,2-trifluoro-ethyl)-urea hydrochloride]	0.95	–	–	5.8	–
O=C(NCC(F)(F)F)Nc1cccc(-c2cnc3cc(-c4cnn(C5CCCNC5)c4)ccn23)c1 (stereo not drawn) [Example 40, 1-{3-[7-(1-Piperidin-3-yl-1H-pyrazol-4-yl)-imidazo[1,2-a]pyridin-3-yl]-phenyl}-3-(2,2,2-trifluoro-ethyl)-urea formate]	0.046	–	–	4	–
Nc1ccc(-c2ccn3c(-c4cccc(NC(=O)NCC(F)(F)F)c4)cnc3c2)nc1 [Example 124, 1-{3-[7-(5-Amino-pyridin-2-yl)-imidazo[1,2-a]pyridin-3-yl]-phenyl}-3-(2,2,2-trifluoro-ethyl)-urea hydrochloride]	0.024	–	–	0.27	–
COc1cc(OC)nc(-c2ccn3c(-c4cccc(NC(=O)NCC(F)(F)F)c4)cnc3c2)n1 [Example 48, 1-{3-[7-(4,6-Dimethoxy-pyrimidin-2-yl)-imidazo[1,2-a]pyridin-3-yl]-phenyl}-3-(2,2,2-trifluoro-ethyl)-urea hydrochloride]	0.13	0	–	–	–
Nc1nc(-c2ccn3c(-c4cccc(NC(=O)NC5CC5)c4)cnc3c2)ncc1F [Example 166]	0.29	0	–	–	–
NC(=O)c1ccnc(-c2ccn3c(-c4cccc(NC(=O)NCC(F)(F)F)c4)cnc3c2)n1 [Example 185]	0.14	–	–	–	0
O=C(NCC(F)(F)F)Nc1cccc(-c2cnc3cc(-c4ccc(N5CCCCC5)nn4)ccn23)c1 [Example 7, 1-{3-[7-(6-Piperidin-1-yl-pyridazin-3-yl)-imidazo[1,2-a]pyridin-3-yl]phenyl}-3-(2,2,2-trifluoroethyl)urea]	0.0063	–	6.07	–	–
O=C(NCC(F)(F)F)Nc1cccc(-c2cnc3cc(-c4ncc(F)c(NCCO)n4)ccn23)c1 [Example 164]	0.26	–	5.38	–	–
O=C1CN(c2ccc(-c3ccn4c(-c5cccc(NC(=O)NCC(F)(F)F)c5)cnc4c3)nn2)CCN1 [Example 95, 1-(3-{7-[6-(3-Oxo-piperazin-1-yl)-pyridazin-3-yl]-imidazo[1,2-a]pyridin-3-yl}-phenyl)-3-(2,2,2-trifluoro-ethyl)-urea bis-hydrochloride]	3.4	0	–	–	–
Cc1cnc(-c2ccn3c(-c4cccc(NC(=O)NCC(F)(F)F)c4)cnc3c2)nc1 [Example 58, 1-{3-[7-(5-Methyl-pyrimidin-2-yl)-imidazo[1,2-a]pyridin-3-yl]-phenyl}-3-(2,2,2-trifluoro-ethyl)-urea hydrochloride]	0.077	–	–	0.7	–
O=C(NCC(F)(F)F)Nc1cncc(-c2cnc3cc(-c4ncccn4)ccn23)c1 [Example 35, 1-[5-(7-Pyrimidin-2-yl-imidazo[1,2-a]pyridine-3-yl)pyridin-3-yl]-3-(2,2,2-trifluoroethyl)urea hydrochloride]	0.33	0	–	–	–
Nc1cnc(-c2ccn3c(-c4cccc(NC(=O)NCC(F)(F)F)c4)cnc3c2)nc1 [Example 174]	0.49	–	5.82	–	–
CCNC(=O)Nc1cccc(-c2cnc3cc(-c4ncc(F)c(N)n4)ccn23)c1 [Example 163]	0.22	11	–	–	38
CC(C)(CO)Nc1ccc(-c2ccn3c(-c4cccc(NC(=O)NCC(F)(F)F)c4)cnc3c2)nn1 [Example 81, 1-(3-{7-[6-(2-Hydroxy-1,1-dimethyl-ethylamino)-pyrid-azin-3-yl]-1,7-dihydro-imidazo[1,2-a]pyridin-3-yl}-phenyl)-3-(2,2,2-trifluoro-ethyl)-urea hydrochloride]	0.028	–	–	–	20
COCCc1nnc(-c2ccn3c(-c4cccc(NC(=O)NCC(F)(F)F)c4)cnc3c2)s1 [Compound 319]	0.012	–	6.82	–	–
Cc1ccc(-c2ccn3c(-c4cccc(NC(=O)NCC(F)(F)F)c4)cnc3c2)nc1 [Example 91, 1-{3-[7-(5-Methyl-pyridin-2-yl)-imidazo[1,2-a]pyridin-3-yl]-phenyl}-3-(2,2,2-trifluoro-ethyl)-urea formate]	0.0079	–	–	0.1	–

Source: patent US8796244B2, “Imidazopyridine derivatives as inhibitors of receptor tyrosine kinases” (Astex Therapeutics Ltd, priority 2008, dated 2014)
